In EP4556004A1 (priority 2023, dated 2025):

What follows are molecules tested on SARS-CoV-2 (assay: SARS-CoV-2 antiviral assay in human primary epithelial nasal cells (Mucilair)). Settings: not given.
Format: cell-based, severe acute respiratory syndrome coronavirus-2
For `CC(C)=CCC1=C(O)C(C(=O)C(C)C)=C(O)C(CC=C(C)C)(CC=C(C)C)C1=O` [Colupulone, Co-lupulone], the “reduction of SARS-CoV-2 infection” value was “able to reduce”.

Each molecule was assayed on HCoV-229E (assay: not given). Settings: not given.
Format: cell-based, Human coronavirus 229E
In the case of `CC(C)=CCC1=C(O)C(C(=O)C(C)C)=C(O)C(CC=C(C)C)(CC=C(C)C)C1=O` [Colupulone, Co-lupulone], the “reduction of HCoV-229E infection” value is reported as “able to reduce”.

What follows are molecules tested on HCoV-229E (assay: microbe, parasite or virus in culture). Settings: not given.
Format: cell-based, Human coronavirus 229E
`CC(C)=CCc1c(O)cc(O)c(C(=O)C(C)C)c1O` [AH56-F3, 2-methyl-1-(2,4,6-trihydroxy-3-(3-methylbut-2-en-1-yl)phenyl)propan-1-one] showed an IC50 of over 24 µM.
With `CC(C)=CCc1c(O)cc(O)c(C(=O)C(C)C)c1O` [AH62-F2, 2-methyl-1-(2,4,6-trihydroxy-3-(3-methylbut-2-en-1-yl)phenyl)propan-1-one] the IC50 was under 3 µM.
Work on `CC(C)=CCC1=C(O)C(C(=O)C(C)C)=C(O)C(CC=C(C)C)(CC=C(C)C)C1=O` [Colupulone, Co-lupulone] yielded an IC50 of under 3 µM.
Work on Ad-lupulone yielded an IC50 of under 12 µM.

Same assay, conditions: Human coronavirus 229E, Huh-7
In the case of `CC(C)=CCC1=C(O)C(CC=C(C)C)(CC=C(C)C)C(=O)C(C(=O)CC(C)C)=C1O` [AH6-F2, 3,5-dihydroxy-4,6,6-tris(3-methylbut-2-en-1-yl)-2-(3-methylbutanoyl)cyclohexa-2,4-dien-1-one], the IC50 is reported as under 3 µM.
With `CCC(C)C(=O)C1=C(O)C(CC=C(C)C)=C(O)C(CC=C(C)C)(CC=C(C)C)C1=O` (stereo not drawn) [AH8-F2, 3,5-dihydroxy-4,6,6-tris(3-methylbut-2-en-1-yl)-2-(2-methylbutanoyl)cyclohexa-2,4-dien-1-one] the IC50 was under 12 µM.
`CCCC(=O)C1=C(O)C(CC=C(C)C)=C(O)C(CC=C(C)C)(CC=C(C)C)C1=O` [AH10-F2, 2-butyryl-3,5-dihydroxy-4,6,6-tris(3-methylbut-2-en-1-yl)cyclohexa-2,4-dien-1-one] was tested, and the IC50 was under 3 µM.
`CC(=O)C1=C(O)C(CC=C(C)C)=C(O)C(CC=C(C)C)(CC=C(C)C)C1=O` [AH16-F2, 2-acetyl-3,5-dihydroxy-4,6,6-tris(3-methylbut-2-en-1-yl)cyclohexa-2,4-dien-1-one] gave an IC50 of under 12 µM.
For `CCC(=O)C1=C(O)C(CC=C(C)C)=C(O)C(CC=C(C)C)(CC=C(C)C)C1=O` [AH17-F2, 3,5-dihydroxy-4,6,6-tris(3-methylbut-2-en-1-yl)-2-propionylcyclohexa-2,4-dien-1-one], the IC50 was over 24 µM.
`CCCCC(=O)C1=C(O)C(CC=C(C)C)=C(O)C(CC=C(C)C)(CC=C(C)C)C1=O` [AH18-F4, 3,5-dihydroxy-4,6,6-tris(3-methylbut-2-en-1-yl)-2-pentanoylcyclohexa-2,4-dien-1-one] was tested, and the IC50 was under 12 µM.
`CC(C)=CCC1=C(O)C(CC=C(C)C)(CC=C(C)C)C(=O)C(C(=O)CCC(C)C)=C1O` [AH39-F1, 3,5-dihydroxy-4,6,6-tris(3-methylbut-2-en-1-yl)-2-(4-methylpentanoyl)cyclohexa-2,4-dien-1-one] was tested, and the IC50 was under 12 µM.
`CCC(C)CC(=O)C1=C(O)C(CC=C(C)C)=C(O)C(CC=C(C)C)(CC=C(C)C)C1=O` (stereo not drawn) [AH40-F1, 3,5-dihydroxy-4,6,6-tris(3-methylbut-2-en-1-yl)-2-(3-methylpentanoyl)cyclohexa-2,4-dien-1-one] gave an IC50 of under 12 µM.
Work on `CC(C)=CCC1=C(O)C(CC=C(C)C)(CC=C(C)C)C(=O)C(C(=O)C=Cc2ccccc2)=C1O` [AH41-F1, 2-cinnamoyl-3,5-dihydroxy-4,6,6-tris(3-methylbut-2-en-1-yl)cyclohexa-2,4-dien-1-one] yielded an IC50 of under 12 µM.
With `CC(C)=CCC1=C(O)C(CC=C(C)C)(CC=C(C)C)C(=O)C(C(=O)/C=C/c2ccc(C(F)(F)F)cc2)=C1O` [AH44-F2, (E)-3,5-dihydroxy-4,6,6-tris(3-methylbut-2-en-1-yl)-2-(3-(4-(trifluoromethyl)phenyl)acryloyl)cyclohexa-2,4-dien-1-one] the IC50 was under 12 µM.
With `CC(C)=CCC1=C(O)C(CC=C(C)C)(CC=C(C)C)C(=O)C(C(=O)c2ccccc2)=C1O` [AH47-F3, 2-benzoyl-3,5-dihydroxy-4,6,6-tris(3-methylbut-2-en-1-yl)cyclohexa-2,4-dien-1-one] the IC50 was under 12 µM.
`CC(=O)c1c(O)c(CC=C(C)C)c(O)c(CC=C(C)C)c1O` [AH52-F1, 1-(2,4,6-trihydroxy-3,5-bis-(3-methylbut-2-en-1-yl)phenyl)ethan-1-one] showed an IC50 of over 24 µM.
`CC(C)=CCC1C(=O)C(C(=O)CC(C)C)=C(O)C=C1O` (stereo not drawn) [AH55-F3, 3,5-dihydroxy-6-(3-methylbut-2-en-1-yl)-2-(3-methylbutanoyl)cyclohexa-2,4-dien-1-one] gave an IC50 of under 24 µM.
`CCC(C)C(=O)c1c(O)cc(O)c(CC=C(C)C)c1O` (stereo not drawn) [AH57-F3, 2-methyl-1-(2,4,6-trihydroxy-3-(3-methylbut-2-en-1-yl)phenyl)butan-1-one] gave an IC50 of under 24 µM.
In the case of `CC(C)=CCC1(CC=C(C)C)C(=O)C(C(=O)C(C)C)=C(O)C(C(=O)C(C)C)=C1O` [AH66-F1, 1,1'-(2,4-dihydroxy-5,5-bis(3-methylbut-2-en-1-yl)-6-oxocyclohexa-1,3-diene-1,3-diyl)bis(2-methylpropan-1-one)], the IC50 is reported as under 12 µM.
In the case of `CC(C)=CCC1=C(O)C(CC=C(C)C)(CC=C(C)C)C(=O)C(C(=O)CCCCCNc2ccc([N+](=O)[O-])c3nonc23)=C1O` [AH77-F1, 3,5-dihydroxy-4,6,6-tris(3-methylbut-2-en-1-yl)-2-(6-((7-nitrobenzo[c][1,2,5]oxadiazol-4-yl)amino)hexanoyl)cyclohexa-2,4-dien-1-one], the IC50 is reported as under 12 µM.
For `CC(C)=CCC1=C(O)[C@](O)(CC=C(C)C)C(=O)C(C(=O)C(C)C)=C1O` [Co-humulone, reference compound], the IC50 was over 24 µM.
With `CC(C)=CCC1=C(O)[C@](O)(CC=C(C)C)C(=O)C(C(=O)CC(C)C)=C1O` [Humulone, reference compound] the IC50 was over 24 µM.
In the case of `CC(C)=CCC1(CC=C(C)C)C(=O)CC(O)=C(C(=O)CC(C)C)C1=O` [LB68-F3, 5-hydroxy-2,2-bis(3-methylbut-2-en-1-yl)-4-(3-methylbutanoyl)cyclohex-4-ene-1,3-dione], the IC50 is reported as under 12 µM.
Molecule `CC(C)=CCC1=C(O)C(CC=C(C)C)(CC=C(C)C)C(=O)C(C(=O)C(C)C)=C1O` [LB.70-F2, 3,5-dihydroxy-4,6,6-tris(3-methylbut-2-en-1-yl)-2-(2-methylpropanoyl)cyclo-hexa-2,4-dien-1-one] has an IC50 of under 3 µM.
`CC(C)=CCC1=C(O)C(C(=O)CC(C)C)=C(O)C(CC=C(C)C)(CC=C(C)C)C1=O` [Lupulone] was tested, and the IC50 was under 3 µM.
